Several values for one entry are separate records, joined by “and”; a condition that tells them apart may be missing. Equal entries are not always repeated.
Columns and labels:
[1] = tested on: sensitization of TRPV1 mediated by PAR-2 activity; test: Inhibition of sensitization of TRPV1 mediated by PAR-2 activity in sensory neurons in culture; CGRP levels (EIA); format: cell-based; settings: rat DRG neurons, 15 min, PAR-2 agonist I 30 μM then capsaicin 1 μM
Experimental: Thus, the effectiveness and potential of the peptides in the inhibition of α-CGRP release due to TRPV-1 sensitization mediated by PAR-2 activity in culture of rat DRG neurons was evaluated.
DRG neurons in culture were incubated with the different treatments at the indicated concentrations in buffer medium HBSS (Hank's Balanced salt solution) for 15 min at 37° C., after which the neurons were sensitized by treatment with the PAR-2 agonist I at 30 μM for 15 min at 37° C. Lastly α-CGRP release was induced by treatment with capsaicin 1 μM for 5 min at 37° C. The supernatants were collected and the amount of α-CGRP released was determined by enzyme immunoassay using the Rat CGRP EIA kit (SPI-Bio, Societe de Pharmacologie et d'Immunologie-BIO, France) following the supplier's instructions. The intensity of the color, determined by reading the absorbency at 405 nm, is proportional to the amount of CGRP released. The relative values of CGRP released were determined by double standardization with regard to the basal release of CGRP of the negative control (cells treated with HBSS) and the maximum releases of CGRP induced by the treatment with the cells with the PAR-2 agonist I and capsaicin.

[2] = target: T1, PAR-2 (Homo sapiens, UniProt P55085); test: Inhibition of the release of IL-6 induced by PAR-2 activity in human keratinocytes (ELISA); format: cell-based; settings: 48 h, relative to agonist
T1 construct: endogenous in cells; host or cells: human keratinocytes
T1 sequence (P55085 26-397): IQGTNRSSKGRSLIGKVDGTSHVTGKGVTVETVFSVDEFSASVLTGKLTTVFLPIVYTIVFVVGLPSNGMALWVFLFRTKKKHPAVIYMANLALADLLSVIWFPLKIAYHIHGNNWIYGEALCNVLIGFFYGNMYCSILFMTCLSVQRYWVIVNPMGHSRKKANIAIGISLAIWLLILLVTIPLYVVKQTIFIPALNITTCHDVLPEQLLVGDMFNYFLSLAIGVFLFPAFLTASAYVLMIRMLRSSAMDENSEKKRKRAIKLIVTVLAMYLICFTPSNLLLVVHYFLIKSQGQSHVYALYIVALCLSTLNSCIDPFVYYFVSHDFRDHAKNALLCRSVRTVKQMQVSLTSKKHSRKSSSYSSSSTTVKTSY
Experimental: Human keratinocytes were cultivated in supplemented Epilife® medium until confluence was achieved. The cells were then separated by treatment with trypsin and seeded at a density of 18,000 cells per well in 96-well plates pre-treated with collagen matrix. After 48 hours of incubation in supplemented Epilife® medium at 37° C. in a humidified atmosphere of 5% CO2 a fresh medium was added with different concentrations of the product of the invention together with PAR2 Agonist I at 50 μM. Cells treated with supplemented Epilife® medium were added as a negative control (Control). The cells were incubated for another 48 hours under the same conditions, after which the supernatants were collected and the amount of IL-6 released was determined using the Human IL-6 ELISA Ready-SET-GOI® commercial kit (eBioscience, Inc.) following the supplier's instructions. The absorbance of each well was determined by reading the spectrophotometer Multiskan Ascent Reader at 450 nm correcting for each determination with its corresponding reading at 570 nm. The relative levels of IL-6 were calculated standardized with regard to the absorbance corresponding to the treatment of the cells with the PAR-2 Agonist I (maximum release of IL-6 in this cell model).

[3] = tested on: human epidermal keratinocytes; test: Proliferation of human epidermal keratinocytes in culture (calcein-AM); format: cell-based; settings: 24 h, (T-C)/C
Experimental: Cell proliferation was evaluated by a fluorescence-based cell viability method, in which the live cells are distinguished from the dead cells by the enzymatic conversion of calcein-AM to its fluorescent form.
Human keratinocytes were cultivated in DMEM supplemented with fetal bovine serum (FBS) until confluence was achieved. The cells were then separated using trypsin and were seeded at a density of 100,000 cells per well in 96-well plates. After 24 hours of incubation in DMEM at 37° C. in a humidified atmosphere at 5% CO2 a fresh medium was added with different concentrations of the product of the invention. Cells treated with DMEM as a negative control were used. The cells were incubated for another 24 hours under the same conditions and the medium was substituted by 100 μl of calcein-AM (Molecular Probes) at 0.4 μM diluted in phosphate buffered saline (PBS). After 30 minutes of incubation at 37° C. the fluorescence was measured at excitation 485 nm and emission 530 nm in a plate reader (Genios, Tecan). The total growth percentage was calculated as T/C×100 wherein T is the fluorescence of the wells treated with the peptides of the invention and C the fluorescence of the control wells treated with DMEM.

[4] = tested on: human epidermal keratinocytes; test: Induction of healing in human epidermal keratinocytes in culture (cell-free area closure); format: cell-based; settings: 48 h, (A0-A48)/A0
Experimental: Human keratinocytes were cultivated in DMEM supplemented with fetal bovine serum (FBS) until confluence was achieved. The cells were then separated using trypsin and were seeded at a density of 50,000 cells per well in 48-well plates. After 48 hours of incubation in DMEM at 37° C. in a humidified atmosphere at 5% CO2 a cut in the cultivation with a pipette point to create an area without cells simulating an injury and photographs were taken of said area with a Zeiss Axiovert 40 CFL microscope equipped with a AxioCam MRc5 camera, calculating the area of the zone without cells using the (A0) equipment software. A fresh medium was then added with different concentrations of the product of the invention. Cells treated with DMEM as a negative control were used, and cells treated with DMEM and FBS as the positive healing control. The cells were incubated for another 48 hours under the same conditions to enable cell migration in the injury area, after which photographs were taken of the injury area once again and the corresponding areas of the zones without cells were calculated (A48).
The healing percentage was calculated as the ratio of the reduction to the area without cells after 48 hours and the area without cells before incubation with the peptide [(A0-A48)/A0].

[5] = tested on: human dermal fibroblasts; test: Photoprotective effectiveness in human dermal fibroblasts (solar simulation lamp, Neutral Red); format: cell-based; settings: 0.01 μg/mL
Experimental: The human dermal fibroblasts were maintained in culture for 24 hours in […] or phosphate buffered saline (irradiated control, IC) for 1 hour at 37° C. and humidified air with 5% CO2. The cells were then irradiated with a solar simulation lamp with an energy of 37 J/cm^2 at room temperature for 150 min. A control plate was kept in the dark for the same time at room temperature (non-irradiated control, NIC). After the irradiation period the cell medium was replaced by a fresh one and the cells were incubated for another 24 hours. Cell viability was determined by Neutral Red dye, measuring the optical density at 540 nm in a spectrophotometer, standardizing the values of each simple with regard to the cell viability of the non-irradiated control sample (CVNIC).

[6] = In vivo study of skin hydration (Corneometer CM 825, legs); design: species or system human; settings: versus placebo composition
Experimental: A comparative in vivo study of the hydrating capacity of the skin of the cosmetic composition in example 22 and its placebo composition, which contained the same ingredients and in the same percentages as the composition of example 22, except the peptide of the invention, Ac-L-Phe-L-Phe-L-Trp-L-Phe-L-His-L-Val-NH2, which was substituted by water.
The measurements of this study were carried out after the test persons were acclimatized for 45 minutes in a bioclimatic room (22° C.; 60% relative humidity) and with the purpose of maintaining the temperature and humidity constant during the measuring. The measurements of skin hydration were carried out on the legs using a Corneometer® CM 825 (Courage & Khazaka, Germany). […]
All the volunteers applied the placebo composition on their right leg and the cosmetic composition from Example 22 on their left legs twice a day for 4 weeks, always applying the placebo composition to the right leg and the composition from example 22 to the left leg. […] Skin measurement values were measured at three different places within the respective testing areas. The recorded values were averaged. […]

[7] = tested on: Reconstructed human epidermis (RHE); test: Anti-sensitizing potential: IL-8 expression in reconstructed human epidermis (RHE), ELISA; format: cell-based; settings: versus placebo composition; allergens cinnamal and farnesol
Source text: Cosmetic creams containing parfums normally show allergic reactions due to some allergenic components like cinnamal or farnesol. The purpose of this experiment was to evaluate the anti-sensitizing potential of a cosmetic cream of Example 23 containing cinnamal, farnesol and the peptide Ac-L-Phe-L-Phe-L-Trp-L-Phe-L-His-L-Val-NH2, compared with a placebo cream (composition of Example 23 without the ingredients of phase C). In order to determine the anti-sensitizing potential the level of interleukin-8, IL-8 was measured for both creams in RHE tissues after 24 h of cream application.
Commercial RHE tissues (SkinEthic, Lyon, RHE/S/17) (0.5 cm^2) were treated in triplicate with 15 μg of the composition of Example 23 and the placebo composition over the surface of the tissue. After 24 hours of incubation in growth medium at 37° C. in a humidified atmosphere at 5% CO2, the IL-8 expression in the treated RHE tissues was determined using the ELISA Interleukin detection kit (Invitrogen) following the supplier's instructions. The absorbance was determined by reading the spectrophotometer Synergy MX, Biotek, at 450 nm.

[8] = peptide 0.1 mg/mL with PAR2 Agonist I 50 μM
[9] = peptide 0.5 mg/mL with PAR2 Agonist I 50 μM

| Substance | % CGRP ([1]; peptide 25 μg/mL) | % CGRP ([1]; peptide 0.5 mg/mL) | % IL-6 [2, 8] | % IL-6 [2, 9] | % Stimulation of proliferation ([3]; 10 μg/mL) | % Stimulation of proliferation ([3]; 25 μg/mL) | % Healing ([4]; 25 μg/mL) | % Healing ([4]; 0.5 mg/mL) | % PHOTOPROTECTIVE EFFECTIVENESS ([5]; (CVi-CVIC)/CVIC versus irradiated control) | CELL VIABILITY (%) ([5]; irradiated 37 J/cm^2, 150 min, relative to non-irradiated control) | skin hydration (in words) [6] | IL-8 expression / release of cytokines (in words) [7] |
| --- | --- | --- | --- | --- | --- | --- | --- | --- | --- | --- | --- | --- |
| Ac-FFWFHV-NH2 [Ac-L-Phe-L-Phe-L-Trp-L-Phe-L-His-L-Val-NH2] | 58.9% | 17.7% | 61.8% | 30.4% | 21.3% | 23% and 23.2% | 40.0% | 45% and 44.8% | 105.9% | 37.1% | improves the skin's hydration in vivo | highly counteract the release of cytokines induced by cosmetic allergens |
| Ac-FMWFHV-NH2 [Ac-L-Phe-L-Met-L-Trp-L-Phe-L-His-L-Val-NH2] | 70.1% | 20.2% | 84.6% | 42.3% | – | – | – | – | – | – | – | – |
| Ac-FFWDIV-NH2 [Ac-L-Phe-L-Phe-L-Trp-L-Asp-L-Ile-L-Val-NH2] | 78.7% | 20.3% | 36.2% | 11.5% | – | – | – | – | – | – | – | – |

Source: patent US9333152B2, “Peptides which inhibit activated receptors and their use in cosmetic or pharmaceutical compositions” (LIPOTEC, S.A., priority 2011, dated 2016)
